The test system of series [1] is HepG2 stably expressing LSS-Luciferase transgene (SREBP transcriptional activity). As to the kind of experiment: Reporter screening assay, SRE-luciferase reporter. Type of series: cell-based. The note with it: Homo sapiens, 0% FCS media, 24 hours. The procedure:
The effect of Compound 1 on transcriptional activity SREBP was evaluated using an SRE-luciferase reporter construct.
After 24 hours incubation medium cells were treated with various Lovastatin concentrations (10 μM, 5 μM and 1 μM). After 24 hours treatment plates were covered with aluminum foil and frozen at −80° C. overnight. Plates were thawed to room temperature and Luciferase assay was performed. Cells were seeded in a 96 well plate in 10% FCS DMEM media and incubated for 24 hours. Then, they are switched to 0% FCS Media with Compound 1 or DMSO control for another 24 hours, at which point they are assayed for activity of LSS-reporter.
Reagents for performing Luciferase assay were stored at −20° C. To a tube of lyophilized assay substrate was added 1 mL Substrate Solvent and mixed well. The Substrate tube after reconstitution was covered with aluminum foil so as to keep it protected from light. […]
Using a multi-channel pipette, 100 μL Assay Solution (buffer+substrate) was added directly to each sample well in Plate 1, which was incubated for 30 min (plate was covered with aluminum foil). After 30 min incubation, the plate was read for total luminescence. Each well was read for 2 seconds in a plate luminometer. (Microplate reader Envision Microplate reader from Perkin Elmer). Precaution was taken to incubate plate exactly for 30 min prior to reading on the plate reader. […]
(In a reporter assay the amount or activity of a reporter protein is the signal.)

A further series can be described thus: Kinetic solubility. It counts as physicochemical. The note with it: aqueous buffer, kinetic from dmso stock, pH 7.4 buffer, room temperature, 1.0% DMSO. The procedure: Kinetic Solubility Procedure: A 10 mM stock solution of Compound 1 was prepared in DMSO, then 4 μL of the stock was added to a deep well plate containing 396 μL of pH 7.4 buffer. The sample plate was vortexed at 800 rpm for 24 h on thermomixer at room temperature. The plate was sealed well during the incubation process. The DMSO content in the sample was 1.0%. The concentration of Compound 1 in the final incubation was 100 μM. At the end of the incubation period, the sample plate was centrifuged at 4000 rpm for 10 min and analyzed in LC-UV against a calibration curve (CC).

Series [2] can be described thus: Half-life in rat liver microsomes. Type of series: in vitro ADME. The note with it: read-out: Rat LM: Half life. As to the method:
Half-life Human Microsomes: Compound 1 was evaluated for stability in human liver microsomes. A 10 mM stock solution of Compound 1 was prepared in DMSO and diluted with water: acetonitrile (1:1) to a concentration of 1 mM. A working concentration of 100 μM was prepared by further dilution with water: acetonitrile (1:1). To make the preincubation mixture, 2.5 μL of the diluted Compound 1 was combined with 75 μL of human liver microsomes at 3.33 mg/mL, and 85 μL of 100 mM potassium phosphate buffer, and this mixture pre-incubated for 10 min at 37° C. To make the 60 minute mixture without cofactor, 32.5 μL of the preincubation mixture was combined with 17.5 μL of 100 mM potassium phosphate buffer and incubated for 60 min at 37° C. […] To prepare the sample mixture to be evaluated, 25 μL incubation mixture was combined with 200 μL of acetonitrile containing internal standard and vortexed for 5 min at 1200 rpm, then centrifuged for 10 min at 4000 rpm. […] The sample mixture was evaluated by LC-MS/MS using 10 mM ammonium acetate with 0.1% FA as the aqueous mobile phase, and methanol as the organic mobile phase.
Half-life Rat and Mouse Microsomes: Compound 1 was evaluated in rat and mouse liver microsomes following a similar procedure as described above for human liver microsomes.

Series [3] can be described thus: Log D, octanol/aqueous buffer partitioning. Type of series: physicochemical. The note with it: 1-octanol/aqueous buffer; 1-octanol/buffer. The procedure:
Log D Procedure: The Log D of Compound 1 was evaluated by octanol/aqueous buffer partitioning. 500 μL of organic phase (1-octanol) was added to each well of a 2 mL deep well plate, followed by 500 μL of buffer and 15 μL of test compound in DMSO (0.15 mM). The plate was vortexed for 10 seconds and incubated at room temperature for 1 hr on a plate shaker at 200 rpm. After incubation, the samples were allowed to equilibrate for 20 min and then centrifuged at 4000 rpm for 30 min for complete phase separation. The distribution of test compound in buffer and octanol phase was analyzed by HPLC-UV. Log D=Log (Area of Octanol/Area of Buffer)

The next series relates to CACO2. Put plainly: Cancer cell growth inhibition, Sulforhodamine B. Type of series: cell-based. The note with it: Homo sapiens, Caco-2; CACO2 (colon), 72 hr; Responder Cell Lines. As to the method: (§1) The ability of select compounds to inhibit cell growth in various cancer cell lines are evaluated. […] The cell lines shown in Table 5 have reduced growth by at least 50% at 10 uM or lower over 72 hr treatment in growth media. The cell lines shown in Table 6 have reduced growth by at least 50% with an IC50 greater than 10 uM.
(§2) Six 10-fold compound dilutions are prepared in DMSO (e.g. 10 mM, 1 mM, 100 uM, 10 uM, 1 uM, and 0.1 uM). Single data points are acquired for each concentration. The final concentration of DMSO is 0.1%. The duration of the treatment is 72 hr. Growth inhibition is measured using Sulforhodamine B in a protein staining assay. Activity of the agents is determined by evaluation the following parameters: IC50, GI50, IC10, TGI, LC50, IC90, and GI90 (where these values can be calculated).

A further series concerns JAR. Put plainly: Cancer cell growth inhibition, Sulforhodamine B. Type of series: cell-based. Conditions: JAR (placenta), 72 hr; Responder Cell Lines. As to the method: as §1, §2
In another series the test system is RAMOS. As to the kind of experiment: Cancer cell growth inhibition, Sulforhodamine B. It counts as cell-based. The note with it: Homo sapiens, 72 h, RAMOS (hematological). The procedure:
as §1, §2

Each structure is given as a SMILES string. Values after ≈ are worked out from the molar mass of the structure shown.

Broadly, the EC50 is the concentration giving half of the maximal effect. As usually defined, the solubility (kinetic) is the concentration staying in solution when a stock, usually in DMSO, is diluted into the medium. The half-life is the time in which the quantity being followed falls by half. As usually defined, the logD is lipophilicity at a set pH, counting ionised and neutral species. The term IC50 denotes the midpoint of a concentration-inhibition curve. A higher IC50 goes with weaker potency. In the case of `CC(C)(O)c1cc(-c2csc(-c3ccc(C(=O)N4CCC(O)CC4)cc3Cl)c2)ccn1` [Compound 1, (3-chloro-4-(4-(2-(2-hydroxypropan-2-yl)pyridin-4-yl)thiophen-2-yl)phenyl)(4-hydroxypiperidin-1-yl)methanone], in series [1], it took 0.15 µM to reach a half-maximal effect (EC50). This compound also came in with a kinetic solubility at 24 h in the series “Kinetic solubility” of 37 µM (≈ 16.9 µg/mL). The half-life at 1 µM in series [2] stood at 1.68 h. In series [3], the logD was 3.38. The IC50 in the series with CACO2 was < 10 µM; in the series with JAR it was < 10 µM; with RAMOS (Non-Responder Cell Lines with IC50 >10 uM or Not Determined) it was > 10 µM; in the series on RAMOS (Responder Cell Lines), < 10 µM.

The values are drawn from patent US20220356170A1, “SREBP INHIBITOR COMPRISING A THIOPHENE CENTRAL RING” (Capulus Therapeutics, LLC, priority 2019, published 2022).
